IC50 data for 11 molecules are collected here from patent US7582677B2, “Lignan formulations” (Hormos Medical Corp., priority 2002, dated 2009).

The test system of this test is microsomal lipids. Description: Inhibition of lipid peroxidation (microsomal lipids, tert-butylhydroperoxide initiated, chemiluminescence detection). To be noted: peroxidation of microsomal lipids initiated by tert-butylhydroperoxide. Type of test: biochemical. The text has this:
In this model, lignan compounds were compared to the well known, potent antioxidant Trolox, which is a water-soluble derivative of vitamin E.
`COc1cc(C[C@H]2C(=O)OC[C@@H]2[C@H](O)c2ccc(O)c(OC)c2)ccc1O` [Hydroxymatairesinol (HMR), Hydroxymatairesinol] had an IC50 of 60 nM.

`COc1cc(C[C@H]2CO[C@H](c3ccc(O)c(OC)c3)[C@H]2CO)ccc1O` [Lariciresinol] returned an IC50 of 70 nM.

`CCCC(=O)Oc1ccc(C[C@H]2COC(=O)[C@@H]2Cc2ccc(OC(=O)CCC)c(OC)c2)cc1OC` [Matairesinoibutyrate] registered an IC50 of 350 nM.

`COc1cc(C[C@H]2COC(=O)[C@@H]2Cc2ccc(O)c(OC)c2)ccc1O` [Matairesinol] gave an IC50 of 54 nM.

Turning to `COc1cc(CC2COC(=O)C2(O)Cc2ccc(O)c(OC)c2)ccc1O` (centres unmarked) [Nortrachelogenin], half-maximal inhibition (IC50) was put at 150 nM.

In turn, `COc1cc(CC2C(=O)OCC2C(=O)c2ccc(O)c(OC)c2)ccc1O` (centres unmarked) [Oxomatairesinol] gave an IC50 of 110 nM.

`COc1cc(C[C@@H](CO)[C@H](CO)Cc2ccc(O)c(OC)c2)ccc1O` [Secoisolariciresinol] came in with an IC50 of 90 nM.

`Cc1c(C)c2c(c(C)c1O)CCC(C)(C(=O)O)O2` (centres unmarked) [Trolox, reference compound] came in with an IC50 of 220 nM.

Molecule HMR-benzoate gave an IC50 of 120 nM.

The molecule HMR-butyrate returned an IC50 of 100 nM.

The molecule α-Conidendrin gave an IC50 of 67 nM.
